# Laboratory results: PubChem BioAssay AID2305 (GlaxoSmithKline (GSK), 2010)
# pIC50: −log10 of the molar value.
# Test system: P. falciparum 3D7 growth, pLDH absorbance
# Assay: P. falciparum 3D7 growth inhibition, dose response, strain 3D7 (AID 2305)
row,Structure (SMILES),pIC50
1,COc1cc(CN2CCN(c3ccnc(N(C)C4CCN(C)CC4)n3)CC2)cc(Cl)c1O,6.11
2,CCCCN(CCCC)CCCCNc1c2ccccc2nc2ccccc12,6.82
3,O=C(NCCN1CCOCC1)c1ccc(O)c(-c2cccc(C(F)(F)F)c2)c1,6.12
4,CN1CCN(c2ccnc3ccc(NC(=O)Nc4ccc(Cl)cc4)cc23)CC1,6.96
5,CN1CCOc2ccc(Nc3nnc(-c4cccc(-c5cccnc5)c4)o3)cc2C1,7.00
6,O=C(Nc1cccc(N2CCC(NCCCn3ccnc3)CC2)c1)c1cccc(C(F)(F)F)c1,5.95
7,CCCC(C)c1ccc(N2C(N)=NC(N)=NC2(C)C)cc1 (stereo unspecified),8.00
8,Cc1cccc2[nH]c(-c3cccc(-c4cccc(C(=O)NCCN5CCCC5)c4)c3)nc12,6.08
9,COc1cccc(NC(=O)CSc2nc(-c3ccccc3Cl)ns2)c1,6.09
10,COc1cccc(C2C(C(=O)Nc3ccccc3)=C(C)N=c3s/c(=C\c4ccc(O)cc4)c(=O)n32)c1 (stereo unspecified),6.24
11,COc1cccc2c(O)c(CNC3CCCCC3)ccc12,6.20
12,Cc1cc(NC(=O)CCN2CCN(c3cccc(Cl)c3Cl)CC2)ccc1N1CCN(C(C)C)CC1,6.07
13,O=C(c1cc(-c2cccs2)[nH]n1)N1CCN(S(=O)(=O)c2ccc(Br)cc2)CC1,6.44
14,O=C(NC(Nc1ccc([N+](=O)[O-])cc1)C(Cl)(Cl)Cl)c1cccc(Cl)c1 (stereo unspecified),6.07
15,NC(N)=NN=Cc1c2ccc(Cl)cc2c(Cl)c2ccc(Cl)cc12,6.02
16,O=C(Nc1cccc(-c2ccc(CN3CCC(O)CC3)cc2)c1)c1cccc(Cl)c1,6.12
17,COc1ccccc1C(C)NCC(=O)Nc1cccc(C(=O)Nc2cccc(C(F)(F)F)c2)c1 (stereo unspecified),5.82
18,COc1ccc2ncc(F)c(CCN3CCC4(CC3)COC(c3cc5c(cn3)OCCO5)=N4)c2n1,6.66
19,COC(=O)C(NC(=O)c1ccc(-c2ccc(-c3nc4ccccc4[nH]3)s2)cc1)c1ccc(O)cc1 (stereo unspecified),6.13
20,O=C(NCc1ccc(F)cc1)Nc1cccc(-c2ccc(-c3nc4ccccc4[nH]3)cc2)c1,6.77
21,O=C(NCCCN1CCC(Cc2ccccc2)CC1)c1cc2c(Cl)nc3ccccc3c2s1,6.13
22,CC(Cc1ccc(Oc2ccccc2)cc1)NCC(O)c1cccc(C(F)(F)F)c1 (stereo unspecified),6.17
23,CC(=O)OCCN1C(=O)c2ccc3c4c(ccc(c24)C1=O)C(=O)N(CCOC(C)=O)C3=O,6.62
24,O=C(Nc1cccc(C(F)(F)F)c1)c1cccc(S(=O)(=O)NCC2CCCN(Cc3ccccc3)C2)c1 (stereo unspecified),5.96
25,Oc1ccccc1N1CCN(c2ccc(-c3nc4ccccc4[nH]3)cn2)CC1,5.95
26,CC(C)N1CCC(NC(=O)N2CCCN(c3ncnc4cc(-c5ccc(Cl)cc5)sc34)CC2)CC1,5.71

row,Structure (SMILES),pIC50
1,CC(C)Oc1ccccc1-c1csc(C(=O)NCC2CCN(Cc3ccc(C(C)(C)C)cc3)C2)c1 (stereo unspecified),5.97
2,O=C(c1ccccc1)N1CCC(CN2CCOC(c3ccccc3)(c3ccccc3)C2)CC1,6.30
3,COc1cc(NC(=O)c2cc([N+](=O)[O-])ccc2NC(=O)CNC2CCCCC2C)cc(OC)c1 (stereo unspecified),5.76
4,CN1CCN(c2ccc(-c3cc(-c4ccncc4)c(-c4ccc(Cl)c(O)c4)o3)cc2)CC1,6.13
5,COc1cc(Cc2cnc(N)nc2N)cc(OCCNC(=O)OCc2ccccc2)c1OC,6.04
6,CC(C)c1sc(N2CCCCC2)nc1C(=O)Nc1ccc(F)cc1C(F)(F)F,6.62
7,COc1cccc(-c2ccc3ccnc(N)c3c2)c1,6.39
8,Cc1nc(Nc2ccncc2)cc(-c2ccncc2)n1,6.14
9,Cc1[nH]c(C)c(-c2ccc(OCc3ccccc3)cc2)c(=O)c1Br,6.55
10,CCOc1cc(C(=O)NC2CCN(Cc3ccccc3)CC2)ccc1-c1nc2cc(Cl)c(F)cc2[nH]1,6.10
11,CCCC(C)Nc1nc(C)cc(N[C@@H](CC(C)C)C(=O)NCc2cccc(F)c2)n1 (stereo partly specified),6.00
12,CC(C)(CNC(=O)C1CCN(Cc2ccc(Cl)cc2)CC1)c1nc(-c2ccc(Cl)c(O)c2)c(-c2ccncc2)[nH]1,6.21
13,CC(C)Nc1cc(C(=O)N[C@@H](Cc2ccccc2)[C@H](O)CNC2CCCCC2)cc(N2CCCCS2(=O)=O)c1,7.00
14,N#Cc1ccc2c(c1)CCN(CCC1CCC(NC(=O)Nc3cnc4ccccc4c3)CC1)C2 (stereo unspecified),6.11
15,Nc1ncc(-c2ccc3nccc(-c4ccncc4)c3c2)cc1S(=O)(=O)N1CCCCC1,6.24
16,CC(C)(C)c1ccc(CNC(=O)COc2ccc(-c3nnc(-c4cccc([N+](=O)[O-])c4)o3)cc2[N+](=O)[O-])cc1,6.03
17,CN(C)c1nc(NCc2ccccc2)nc(NN=Cc2cc([N+](=O)[O-])ccc2O)n1,6.16
18,N#Cc1cc(C(=O)c2cc(Br)ccc2O)cn(C2CCCCC2)c1=O,6.04
19,Cc1cc(N2CC=CCC2)nc(/N=C(\N)Nc2ccc(Cl)cc2)n1,6.11
20,COc1cc2nc(NCCn3nc(C)cc3C)nc(NCCc3ccccc3)c2cc1OC,6.36
21,CN1CCCC1CNS(=O)(=O)c1ccc(C(=O)NCC2CC2)cc1 (stereo unspecified),6.77
22,Cc1cc2cc(-c3ccc(CN)cc3)ccc2nc1N,5.95
23,COc1cccc(CNC[C@@H](O)[C@H](Cc2ccccc2)NC(=O)c2cc(N3CCCC3=O)c3[nH]cc(C(C)C)c3c2)c1,6.28
24,COc1ccc(C[C@H](C)NC[C@H](O)c2cccc(Cl)c2)cc1F,6.00
25,c1ccc(Oc2ccc(Nc3ccnc4cc(-c5ccc(CN6CCOCC6)o5)ccc34)cc2)nc1,6.04
